Laboratory results as given in patent US20250154134A1, “COMPOUND AS FAK INHIBITOR AND USE THEREOF” (WIGEN BIOMEDICINE TECHNOLOGY (SHANGHAI) CO., LTD., priority 2022, published 2025).

Key:
FAK recombinant protein = FAK recombinant protein (Homo sapiens (Human), UniProt Q05397); assay: Inhibitory activity against FAK enzyme (HTRF, TK substrate); type: biochemical
Description: A compound serially diluted with DMSO was mixed with a FAK recombinant protein. After the mixture was left to stand at room temperature for 10 min, a biotin-labeled TK substrate (TK) and ATP were added. […] The inhibition percentage and IC50 of the compound were calculated compared to the DMSO control group.

PC3 cells [1] = assay: PC3 cell proliferation, 3D activity assay (3D culture, 14 days); type: cell-based, human; details: Homo sapiens, PC-3, 336 h, read-out: 3D inhibitory activity against PC3 cells IC50
Description: (§1) 2D activity assay: 1200 PC3 cells were seeded in a 96-well plate. After overnight adherence culture, A compound serially diluted was added. […] The growth of the cells was evaluated, and the IC50 of the compound inhibiting cell growth was calculated. 3D activity assay: PC3 cells were seeded in a 96-well plate at 1200 cells/well, and 3D culture was performed. 14 days after a compound serially diluted was added, the growth of the cells was measured. The inhibition percentage and IC50 of the compound were calculated compared to the DMSO control group.

PC3 cells [2] = assay: PC3 cell proliferation, 2D activity assay (Cell Titer-Lumi, 72 h); type: cell-based, human; details: Homo sapiens, PC-3, read-out: 2D inhibitory activity against PC3 cells IC50
Description: as §1

Sequence of FAK recombinant protein (Q05397 whole entry): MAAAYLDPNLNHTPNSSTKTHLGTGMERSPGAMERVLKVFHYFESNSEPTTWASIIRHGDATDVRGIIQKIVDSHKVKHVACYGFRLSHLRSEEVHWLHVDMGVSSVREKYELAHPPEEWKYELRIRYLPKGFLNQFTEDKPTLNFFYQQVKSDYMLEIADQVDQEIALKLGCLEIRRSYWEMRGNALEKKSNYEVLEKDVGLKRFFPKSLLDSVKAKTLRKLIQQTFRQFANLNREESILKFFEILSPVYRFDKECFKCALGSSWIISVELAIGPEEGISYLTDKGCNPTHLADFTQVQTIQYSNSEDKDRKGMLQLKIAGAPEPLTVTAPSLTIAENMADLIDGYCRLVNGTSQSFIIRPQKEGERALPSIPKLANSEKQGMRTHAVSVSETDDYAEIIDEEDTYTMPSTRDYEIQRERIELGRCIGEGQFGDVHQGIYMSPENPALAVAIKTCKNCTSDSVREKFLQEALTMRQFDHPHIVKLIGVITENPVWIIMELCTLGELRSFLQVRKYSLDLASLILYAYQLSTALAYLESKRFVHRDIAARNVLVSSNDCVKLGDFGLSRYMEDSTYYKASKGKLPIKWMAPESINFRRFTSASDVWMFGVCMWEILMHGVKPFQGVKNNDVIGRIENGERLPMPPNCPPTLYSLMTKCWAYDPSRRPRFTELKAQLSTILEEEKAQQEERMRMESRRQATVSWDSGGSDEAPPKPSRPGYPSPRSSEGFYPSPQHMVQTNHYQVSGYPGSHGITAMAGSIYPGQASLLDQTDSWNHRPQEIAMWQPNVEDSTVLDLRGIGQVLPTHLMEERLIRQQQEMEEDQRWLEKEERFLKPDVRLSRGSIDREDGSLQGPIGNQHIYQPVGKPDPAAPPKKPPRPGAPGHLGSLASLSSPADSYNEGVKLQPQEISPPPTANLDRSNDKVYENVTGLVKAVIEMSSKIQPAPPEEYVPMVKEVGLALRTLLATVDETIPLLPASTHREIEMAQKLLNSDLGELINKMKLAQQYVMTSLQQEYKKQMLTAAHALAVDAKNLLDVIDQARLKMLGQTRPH

SMILES	IC50 (FAK recombinant protein) [nM]	IC50 (PC3 cells [1]) [nM]	IC50 (PC3 cells [2]) [nM]
CCN1CCC2(CC1)CC(NC(=O)c1ccc(Nc3ncc(C(F)(F)F)c(Oc4cccc5c4C(=O)N(C)C54CC4)n3)c(OC)c1)C2 [Compound 46]	< 20	5 to 50	> 2000
[2H]C([2H])([2H])N1CCC2(CC1)CC(NC(=O)c1cc(OC)c(Nc3ncc(C(F)(F)F)c(Oc4cccc5c4C(=O)N(C)C54CC4)n3)cc1F)C2 [Compound 47]	< 20	< 5	> 2000
CCN1CCC2(CC1)CC(NC(=O)c1cc(OC)c(Nc3ncc(C(F)(F)F)c(Oc4cccc5c4C(=O)N(C)C54CC4)n3)cc1F)C2 [Compound 48]	< 20	5 to 50	> 2000
C=Cc1cc(C(=O)NC2CCN(C)CC2)ccc1Nc1ncc(C(F)(F)F)c(Oc2cccc3c2C(=O)N(C)C32CC2)n1 [Compound 49]	< 20	5 to 50	> 2000
CCc1cc(C(=O)NC2CCN(C)CC2)ccc1Nc1ncc(C(F)(F)F)c(Oc2cccc3c2C(=O)N(C)C32CC2)n1 [Compound 50]	< 20	5 to 50	> 2000
CCc1cc(C(=O)NC2CCN(C)CC2)c(F)cc1Nc1ncc(C(F)(F)F)c(Oc2cccc3c2C(=O)N(C)C32CC2)n1 [Compound 51]	< 20	5 to 50	> 2000
CCc1cc(C(=O)NC2CC3(CCN(C)CC3)C2)ccc1Nc1ncc(C(F)(F)F)c(Oc2cccc3c2C(=O)N(C)C32CC2)n1 [Compound 52]	< 20	< 5	> 2000
CN1CCC(NC(=O)c2ccc(Nc3ncc(C(F)(F)F)c(Oc4cccc5c4C(=O)N(C)C54CC4)n3)c(OC(F)(F)F)c2)CC1 [Compound 53]	< 20	5 to 50	> 2000
COc1cc(C(=O)NC2CCN(C)CC2)c(-c2cnn(C)c2)cc1Nc1ncc(C(F)(F)F)c(Oc2cccc3c2C(=O)N(C)C32CC2)n1 [Compound 54]	< 20	< 5	> 2000
COc1cc(C(=O)N2CC3(CCN(C)CC3)C2)ccc1Nc1ncc(C(F)(F)F)c(Oc2cccc3c2C(=O)N(C)C32CC2)n1 [Compound 55]	< 20	5 to 50	> 2000
COc1cc(C(=O)N2CCC3(CCN(C)CC3)CC2)ccc1Nc1ncc(C(F)(F)F)c(Oc2cccc3c2C(=O)N(C)C32CC2)n1 [Compound 56]	< 20	> 50	> 2000
COc1cc(C(=O)N2CCC3(CCN(C)C3)C2)ccc1Nc1ncc(C(F)(F)F)c(Oc2cccc3c2C(=O)N(C)C32CC2)n1 (stereo not drawn) [Compound 57]	< 20	5 to 50	> 2000
COc1cc(C(=O)N2CCC23CCN(C)CC3)ccc1Nc1ncc(C(F)(F)F)c(Oc2cccc3c2C(=O)N(C)C32CC2)n1 [Compound 59]	< 20	5 to 50	> 2000
COc1cc(C(=O)N2CCC3(CCN(C)CC3)C2)ccc1Nc1ncc(C(F)(F)F)c(Oc2cccc3c2C(=O)N(C)C32CC2)n1 [Compound 60]	< 20	5 to 50	> 2000
COc1cc(C(=O)N2CCC3(CCCN(C)C3)C2)ccc1Nc1ncc(C(F)(F)F)c(Oc2cccc3c2C(=O)N(C)C32CC2)n1 (stereo not drawn) [Compound 61]	< 20	5 to 50	> 2000
COc1cc(N2CCC3(CCN(C)CC3)C2=O)ccc1Nc1ncc(C(F)(F)F)c(Oc2cccc3c2C(=O)N(C)C32CC2)n1 [Compound 62]	< 20	5 to 50	> 2000
COc1cc(N2CC3(CCN(C)CC3)CC2=O)ccc1Nc1ncc(C(F)(F)F)c(Oc2cccc3c2C(=O)N(C)C32CC2)n1 [Compound 63]	< 20	< 5	> 2000
COc1cc(N2CC3(CCN(C)CC3)OC2=O)ccc1Nc1ncc(C(F)(F)F)c(Oc2cccc3c2C(=O)N(C)C32CC2)n1 [Compound 64]	< 20	5 to 50	> 2000
COc1cc(N2CC3(CCN(C)C3)OC2=O)ccc1Nc1ncc(C(F)(F)F)c(Oc2cccc3c2C(=O)N(C)C32CC2)n1 (stereo not drawn) [Compound 65]	< 20	< 5	> 2000
COc1cc(N2CC3(CCC2=O)CCN(C)CC3)ccc1Nc1ncc(C(F)(F)F)c(Oc2cccc3c2C(=O)N(C)C32CC2)n1 [Compound 66]	< 20	> 50	> 2000
COc1cc(N2CC3(CCN(C)C3)OCC2=O)ccc1Nc1ncc(C(F)(F)F)c(Oc2cccc3c2C(=O)N(C)C32CC2)n1 (stereo not drawn) [Compound 67]	< 20	5 to 50	> 2000

SMILES	IC50 (FAK recombinant protein) [nM]	IC50 (PC3 cells [1]) [nM]	IC50 (PC3 cells [2]) [nM]
COc1cc(C2=NOC3(CCN(C)CC3)C2)ccc1Nc1ncc(C(F)(F)F)c(Oc2cccc3c2C(=O)N(C)C32CC2)n1 [Compound 68]	< 20	> 50	> 2000
CN1C(=O)c2c(Oc3nc(Nc4ccc5c(c4)CNC5=O)ncc3C(F)(F)F)cccc2C12CC2 [Compound 70]	< 20	> 50	> 2000
CN1CCC(N2C(=O)Cc3cc(Nc4ncc(C(F)(F)F)c(Oc5cccc6c5C(=O)N(C)C65CC5)n4)ccc32)CC1 [Compound 72]	< 20	< 5	> 2000
COc1cc(N2CCNCC2)ccc1Nc1ncc(C(F)(F)F)c(Oc2cccc3c2C(=O)N(C)C32CC2)n1 [Compound 74, 4′-((2-((2-methoxy-4-(piperazin-1-yl)phenyl)amino)-5-(trifluoromethyl)pyrimidin-4-yl)oxy)-2′-methylspiro[cyclopropane-1,1′-isoindolin]-3′-one]	< 20	5 to 50	> 2000
COc1cc(N2CCN(CC(=O)N(C)C)CC2)ccc1Nc1ncc(C(F)(F)F)c(Oc2cccc3c2C(=O)N(C)C32CC2)n1 [Compound 75, 2-(4-(3-methoxy-4-((4-((2′-methyl-3′-oxospiro[cyclopropane-1,1′-isoindolin]-4′-yl)oxy)-5-(trifluoromethyl)pyrimidin-2-yl)amino)phenyl)piperazin-1-yl)-N,N-dimethylacetamide]	< 20	< 5	> 2000
COCCN1CCN(c2ccc(Nc3ncc(C(F)(F)F)c(Oc4cccc5c4C(=O)N(C)C54CC4)n3)c(OC)c2)CC1 [Compound 76, 4′-((2-((2-methoxy-4-(4-(2-methoxyethyl)piperazin-1-yl)phenyl)amino)-5-(trifluoromethyl)pyrimidin-4-yl)oxy)-2′-methylspiro[cyclopropane-1,1′-isoindolin]-3′-one]	< 20	< 5	> 2000
COc1cc(CN(C)C)ccc1Nc1ncc(C(F)(F)F)c(Oc2cccc3c2C(=O)N(C)C32CC2)n1 [Compound 80]	< 20	5 to 50	> 2000
COc1cc(CN2CCCC2)ccc1Nc1ncc(C(F)(F)F)c(Oc2cccc3c2C(=O)N(C)C32CC2)n1 [Compound 81]	< 20	5 to 50	> 2000
COc1cc(N2CCN(C)CC2=O)ccc1Nc1ncc(C(F)(F)F)c(Oc2cccc3c2C(=O)N(C)C32CC2)n1 [Compound 83]	< 20	> 50	> 2000
COc1cc(C2CCN(C)CC2)ccc1Nc1ncc(C(F)(F)F)c(Oc2cccc3c2C(=O)N(C)C32CC2)n1 [Compound 84]	< 20	< 5	> 2000
CN1CCN(c2ccc(Nc3ncc(C(F)(F)F)c(Oc4cccc5c4C(=O)N(C)C54CC4)n3)nc2)CC1 [Compound 85]	< 20	5 to 50	> 2000
COc1cc2c(cc1Nc1ncc(C(F)(F)F)c(Oc3cccc4c3C(=O)N(C)C43CC3)n1)CN(C)CC2 [Compound 86]	< 20	5 to 50	> 2000
COc1cc2c(cc1Nc1ncc(C(F)(F)F)c(Oc3cccc4c3C(=O)N(C)C43CC3)n1)CN(C)C(=O)C2 [Compound 90]	< 20	5 to 50	> 2000
Cc1c(Nc2ncc(C(F)(F)F)c(Oc3cccc4c3C(=O)N(C)C43CC3)n2)nn2c1CCC2 [Compound 93]	< 20	5 to 50	> 2000
CN1C(=O)c2c(Oc3nc(Nc4cc5n(n4)CCOC5)ncc3C(F)(F)F)cccc2C12CC2 [Compound 94]	< 20	< 5	> 2000
CN1C(=O)c2c(Oc3nc(Nc4cnn5c4COCC5)ncc3C(F)(F)F)cccc2C12CC2 [Compound 95]	< 20	5 to 50	> 2000
CN1CCn2nc(Nc3ncc(C(F)(F)F)c(Oc4cccc5c4C(=O)N(C)C54CC4)n3)cc2C1 [Compound 96]	< 20	< 5	> 2000
CN1CCC(n2ccc(Nc3ncc(C(F)(F)F)c(Oc4cccc5c4C(=O)N(C)C54CC4)n3)n2)CC1 [Compound 97]	< 20	5 to 50	> 2000
Cc1cn(C2CCN(C)CC2)nc1Nc1ncc(C(F)(F)F)c(Oc2cccc3c2C(=O)N(C)C32CC2)n1 [Compound 98]	< 20	5 to 50	> 2000
COc1cc(C(=O)NC2CCN(C)CC2)ccc1Nc1ncc(C(F)(F)F)c(Cc2cccc3c2C(=O)N(C)C32CC2)n1 [Compound 99, 3-methoxy-4-((4-((2′-methyl-3′-oxospiro[cyclopropane-1,1′-isoindolin]-4′-yl)methyl)-5-(trifluoromethyl)pyrimidin-2-yl)amino)-N-(1-methylpiperidin-4-yl)benzamide]	< 20	5 to 50	> 2000
